pIC50: −log10 of the molar value.
Tested on: authentic SARS-CoV-2 Delta variant
Conditions: 48 h

CC[C@H](C)[C@H](NC(=O)[C@H](C)NC(=O)[C@H](CCC(=O)O)NC(=O)[C@H](CCC(=O)O)NC(=O)[C@H](CC(C)C)NC(=O)[C@H](CCCCN)NC(=O)[C@H](CCCCN)NC(=O)[C@H](CCSC)NC(=O)[C@H](CCC(=O)O)NC(=O)[C@H](Cc1ccc(O)cc1)NC(=O)[C@H](CCC(=O)O)NC(=O)[C@H](CC(C)C)NC(=O)[C@H](CC(=O)O)NC(=O)[C@H](CC(C)C)NC(=O)[C@H](Cc1ccccc1)NC(=O)[C@@H](NC(=O)[C@@H](NC(=O)[C@H](CC(N)=O)NC(=O)[C@@H](NC(=O)[C@H](CCC(N)=O)NC(=O)[C@H](CC(=O)O)NC(=O)[C@H](CC(C)C)NC(=O)[C@@H](N)CO)[C@@H](C)CC)C(C)C)[C@@H](C)O)C(=O)N[C@@H](CCCCN)C(=O)N[C@@H](CCCCN)C(=O)N[C@@H](CC(C)C)C(=O)N[C@@H](CCC(=O)O)C(=O)N[C@@H](CCC(=O)O)C(=O)N[C@@H](CO)C(=O)N[C@@H](Cc1ccc(O)cc1)C(=O)N[C@H](C(=O)N[C@@H](CC(=O)O)C(=O)N[C@@H](CC(C)C)C(=O)N[C@@H](CCCCN)C(=O)N[C@@H](CCC(=O)O)C(=O)N[C@@H](CC(C)C)C(=O)O)[C@@H](C)CC [EK1]
pIC50: 5.54
